From article PMC11123956, “Nobiletin Stimulates Adrenal Hormones and Modulates the Circadian Clock in Mice” (Nutrients, 2024)

Assays:
[1] = target: T1, PDE4A1A (Homo sapiens, UniProt P27815); experiment: PDE enzyme (kinase) assay, PDE4A1A; type: biochemical
T1 construct: purchased Eurofins Panlabs Discovery Services Taiwan, Ltd. (contract assay); host or cells: insect Sf9 cells
Experimental: Enzyme assays for various subtypes of PDE (Table 1 and Figure 4) were conducted by Eurofins Panlabs Discovery Services Taiwan, Ltd. (New Taipei City, Taiwan). In the assays, five or six concentrations of nobiletin over five or six orders of magnitude were examined in experiments conducted in duplicate to determine the IC50 (concentration of nobiletin exerting half-maximal inhibition of control-specific activity). IC50 values were determined by nonlinear least squares regression analysis using MathIQTM (ID Business Solutions Ltd., Woking, UK). FAM-cAMP, FAM-cGMP (0.1 μM), and 100 μM [^3H]cGMP + cGMP were used for the substrate in the human recombinant insect Sf9 cells or Bovine retinal rod outer segments depending on the PDE subtype. The spectrofluorometric quantitation of fluorescein-AMP-IMAP, fluorescein-GMP-IMAP, or [^3H] guanosine was used depending on the PDE subtype. A known […] of each PDE was used as the positive control.
Figure 4 PDE kinase assays and the acute clock gene expression changes by PDE4 inhibitor or ROR α/γ agonist. (A) Inhibitory effect of nobiletin on PDE4A1, 4B1, and 10A2. Various concentrations of nobiletin (1–100 μM) were used for IC50 determination (Table 1). Values represent the mean of two experiments. Positive controls were rolipram for PDE4A1 and 4B1 and papaverine for PDE10A2. […]

[2] = system: Per1 mRNA; experiment: Real-time RT-PCR of Per1 mRNA in peripheral tissues; type: in vivo, mice
Experimental: (§1) Male C57BL/6J mice (7 weeks old) were purchased from Charles River Japan (Kanagawa, Japan) and used for the serum hormone assay and RT-PCR. Male ICR mice were purchased from Tokyo Laboratory Animals Science Co., Ltd. (Tokyo, Japan), and female PERIOD2::LUCIFERASE (PER2::LUC) knock-in mice (ICR background) bred at Waseda University were used for blood glucose measurements and in vivo imaging assays, respectively. The mice were all housed under conditions of controlled temperature (23 °C ± 3 °C), humidity (50% ± 20%), and lighting (lights on from 07:00 to 19:00 at Taisho Pharmaceutical Co., Ltd. or from 08:00 to 20:00 at Waseda University). In the 24 h cycle, Zeitgeber time 0 (ZT0) was designated as the time when the lights were turned on, and ZT12 was designated as the time when the lights were turned off. All the mice were given access to food and tap water ad libitum, and nobiletin (10–100 mg/kg; purchased from FUJIFILM Wako Pure Chemical Corporation, Osaka, Japan) was administered by intraperitoneal (i.p.) injection in the vehicle (10 mL/kg body weight) containing 0.5% carboxymethyl cellulose (CMC). Rolipram (PDE4 inhibitor, FUJIFILM Wako Pure Chemical Corporation) and SR1078 (RORα/γ agonist, FUJIFILM Wako Pure Chemical Corporation) were also used for the experiment at 10 mg/kg in 0.5% CMC [12]. Mice were euthanized by rapid decapitation for whole blood samples.
Figure 3 Nobiletin stimulated adrenaline and corticosterone secretion, and induced acute clock gene expression changes. (A–C) Mice received intraperitoneal injections of control (0.5% CMC) or nobiletin (10 or 100 mg/kg) at ZT3. (A) Serum corticosterone at 1 h after treatment (n = 6 in each). $$$ p < 0.001 by Tukey’s multiple comparisons test. (B) Serum corticosterone and adrenaline at 1, 2, and 4 h after treatment (n = 4 in each). # p < 0.05 vs. control at each time point by Mann–Whitney test; ** p < 0.01 vs. control at each time point by Student’s t-test. (C) Blood glucose changes after treatment (n = 9 in each). Statistics of 2-way repeated ANOVA are indicated on the graph. […]

[3] = system: Per2 mRNA; experiment: Real-time RT-PCR of Per2 mRNA in peripheral tissues; type: in vivo, mice; conditions: liver, an hour after treatment
Experimental: as §1, with “samples. […]” for “samples.”

T1 sequence (P27815 1-647 isoform P27815-4): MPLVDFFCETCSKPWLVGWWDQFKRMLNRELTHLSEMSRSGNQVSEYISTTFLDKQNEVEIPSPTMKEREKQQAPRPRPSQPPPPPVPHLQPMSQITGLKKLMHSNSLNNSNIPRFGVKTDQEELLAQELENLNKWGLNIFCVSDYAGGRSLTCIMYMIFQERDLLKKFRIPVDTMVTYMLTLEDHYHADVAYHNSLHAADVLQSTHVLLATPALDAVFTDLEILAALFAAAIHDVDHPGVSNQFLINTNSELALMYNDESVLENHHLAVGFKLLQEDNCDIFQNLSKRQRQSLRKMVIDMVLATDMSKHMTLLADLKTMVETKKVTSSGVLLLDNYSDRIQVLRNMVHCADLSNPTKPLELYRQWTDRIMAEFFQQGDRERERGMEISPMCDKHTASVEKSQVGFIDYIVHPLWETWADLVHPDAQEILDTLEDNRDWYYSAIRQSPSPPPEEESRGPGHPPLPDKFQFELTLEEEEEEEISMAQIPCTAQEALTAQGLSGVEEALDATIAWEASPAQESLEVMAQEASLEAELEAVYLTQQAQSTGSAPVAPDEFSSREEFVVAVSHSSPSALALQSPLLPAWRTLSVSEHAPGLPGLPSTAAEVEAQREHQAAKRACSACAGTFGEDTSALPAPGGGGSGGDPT

COc1ccc(-c2cc(=O)c3c(OC)c(OC)c(OC)c(OC)c3o2)cc1OC [nobiletin] was tested, and the IC50 ([1]; IC50, PDE4A1A, bound stated in the discussion) was no more than 6.03 µM, the IC50 ([1]; IC50 Dose, PDE4A1A, duplicate) was 5.23 µM and the “Per1 mRNA upregulation” value ([2]; 4 h after treatment (stomach)) was “diminished”. The “Per1 mRNA” value ([2]; kidney, liver (1 h) and stomach (2 h) after treatment) was “upregulated” and the Per2 expression [3] was “decreased significantly”.
